Laboratory results reported in patent US6608086B2, “Dihydropyridines and new uses thereof” (Synaptic Pharmaceutical Corporation, priority 1993, dated 2003).

Experiments:
[1] = target: T1, α1B Human Adrenergic Receptor (Homo sapiens, UniProt P35368); assay: Radioligand binding, [3H]prazosin, cloned human α1B adrenergic receptor; conditions: cloned human receptor, LM(tk-) cell membranes, mean, read-out: PKi alpha-1 1b (converted)
T1 construct: The entire coding region of α1B (1563 bp); expressed in transfected cells
T1 sequence (P35368 1-520): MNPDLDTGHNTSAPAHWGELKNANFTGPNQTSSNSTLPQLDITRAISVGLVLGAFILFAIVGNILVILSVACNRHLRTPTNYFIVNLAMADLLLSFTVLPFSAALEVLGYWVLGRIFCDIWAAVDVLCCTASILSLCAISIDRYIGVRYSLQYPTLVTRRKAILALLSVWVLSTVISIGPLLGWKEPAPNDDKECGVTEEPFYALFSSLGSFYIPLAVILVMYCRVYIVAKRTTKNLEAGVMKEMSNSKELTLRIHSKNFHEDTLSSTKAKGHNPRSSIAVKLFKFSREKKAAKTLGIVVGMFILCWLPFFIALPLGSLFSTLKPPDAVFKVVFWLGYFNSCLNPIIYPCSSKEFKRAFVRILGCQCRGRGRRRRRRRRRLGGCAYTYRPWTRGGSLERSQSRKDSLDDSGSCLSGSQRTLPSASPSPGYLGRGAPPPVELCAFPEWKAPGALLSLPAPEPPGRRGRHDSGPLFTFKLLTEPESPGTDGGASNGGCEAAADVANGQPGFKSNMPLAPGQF
Method: (§1) The protocols for these experiments are given below.
(§2) These cell lines were prepared by transfecting the cloned cDNA or cloned genomic DNA or constructs containing both genomic DNA and cDNA encoding the human α-adrenergic receptors as follows:
α1B Human Adrenergic Receptor:
The construct involved ligating the full-length containing EcoRI brainstem cDNA fragment from λ ZapII into the expression vector. Stable cell lines were selected as described above.
(§3) Radioligand Binding Assays:
(§4) Transfected cells from culture flasks were scraped into 5 ml of 5 mM Tris-HCl, 5 mM EDTA, pH 7.5, and lysed by sonication. The cell lysates were centrifuged at 1000 rpm for 5 min at 4° C., and the supernatant was centrifuged at 30,000× g for 20 min at 4° C. The pellet was suspended in 50 mM Tris-HCl, 1 mM MgCl2, and 0.1% ascorbic acid at pH 7.5. Binding of the α1 antagonist [^3H]prazosin (0.5 nM, specific activity 76.2 Ci/mmol) to membrane preparations of LM(tk−) cells was done in a final volume of 0.25 ml and incubated at 37° C. for 20 min. Nonspecific binding was determined in the presence of 10 μM phentolamine. The reaction was stopped by filtration through GF/B filters using a cell harvester.

[2] = target: T2, α1A Human Adrenergic Receptor (Homo sapiens, UniProt P25100); assay: Radioligand binding, [3H]prazosin, cloned human α1A adrenergic receptor; conditions: [3H]prazosin, cloned human receptor, LM(tk-) cell membranes; mean; read-out: PKi alpha-1 1a (converted)
T2 construct: The entire coding region of α1A (1719 bp); expressed in transfected cells
T2 sequence (P25100 1-572): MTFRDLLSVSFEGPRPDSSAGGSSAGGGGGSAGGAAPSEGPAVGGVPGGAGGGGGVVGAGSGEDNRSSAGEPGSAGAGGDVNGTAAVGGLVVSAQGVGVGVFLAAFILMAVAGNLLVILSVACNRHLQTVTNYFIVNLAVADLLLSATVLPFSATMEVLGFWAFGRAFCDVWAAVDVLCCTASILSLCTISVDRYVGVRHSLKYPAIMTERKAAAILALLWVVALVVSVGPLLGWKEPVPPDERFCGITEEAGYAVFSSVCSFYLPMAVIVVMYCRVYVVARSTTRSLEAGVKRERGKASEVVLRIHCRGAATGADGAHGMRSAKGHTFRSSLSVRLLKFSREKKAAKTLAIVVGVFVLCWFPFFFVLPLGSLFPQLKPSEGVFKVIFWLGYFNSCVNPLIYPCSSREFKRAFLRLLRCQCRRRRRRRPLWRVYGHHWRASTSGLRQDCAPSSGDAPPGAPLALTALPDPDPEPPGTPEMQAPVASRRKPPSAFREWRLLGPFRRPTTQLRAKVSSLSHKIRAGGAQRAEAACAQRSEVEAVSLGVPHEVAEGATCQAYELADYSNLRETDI
How it was run: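 Transfected LM(tk−) cells are lysed by sonication and membranes collected at 30,000× g. Membranes then bind 0.5 nM [3H]prazosin for 20 min at 37° C, and the reaction is stopped by filtration over GF/B filters, with 10 μM phentolamine giving nonspecific binding.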

[3] = target: T3, α1C Human Adrenergic Receptor (Homo sapiens, UniProt P35348); assay: Radioligand binding, [3H]prazosin, cloned human α1C adrenergic receptor; conditions: cloned human receptor, LM(tk-) cell membranes, mean, read-out: PKi alpha-1 1c (converted)
T3 construct: The entire coding region of α1C (1401 bp); expressed in transfected cells
T3 sequence (P35348 1-466): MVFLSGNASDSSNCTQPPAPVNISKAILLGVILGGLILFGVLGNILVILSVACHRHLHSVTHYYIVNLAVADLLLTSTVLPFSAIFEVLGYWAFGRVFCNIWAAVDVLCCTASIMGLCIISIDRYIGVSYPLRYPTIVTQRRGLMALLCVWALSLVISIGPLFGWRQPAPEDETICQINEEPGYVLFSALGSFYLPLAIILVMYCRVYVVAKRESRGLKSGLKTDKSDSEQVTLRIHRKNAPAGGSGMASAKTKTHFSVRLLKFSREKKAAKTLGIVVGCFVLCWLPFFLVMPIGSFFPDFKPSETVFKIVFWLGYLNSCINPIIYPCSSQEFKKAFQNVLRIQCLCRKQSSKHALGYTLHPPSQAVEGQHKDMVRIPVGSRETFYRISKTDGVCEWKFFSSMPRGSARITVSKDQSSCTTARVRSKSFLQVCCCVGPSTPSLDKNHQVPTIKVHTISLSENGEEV
Method: as §1, §2
α1C Human Adrenergic Receptor:
The construct involved ligating three partial overlapping fragments: a 5′, 0.6 kb HincII genomic clone, a central 1.8 EcoRI hippocampal cDNA clone, and a 3′ 0.6Kb PstI genomic clone. The hippocampal cDNA fragment overlaps with the 5′ and 3′ genomic clones so that the HincII and PstI sites at the 5′ and 3′ ends of the cDNA clone, respectively, were utilized for ligation. This full-length clone was cloned into the KpnI site of the expression vector, using the 5′ and 3′ KpnI sites of the fragment, derived from vector (i.e., pBluescript) and 3′-untranslated sequences, respectively. Stable cell lines were selected as described above.
as §3, §4

[4] = target: T4, α2A receptor (Homo sapiens, UniProt P08913); assay: Competition binding, [3H]rauwolscine, human α2A receptor; conditions: [3H]rauwolscine, human receptor, LM(tk-) cell lysates; mean; read-out: PKi alpha-2 2a (converted)
T4 construct: host or cells: LM(tk-) cells, line L-α2A
T4 sequence (P08913 1-465): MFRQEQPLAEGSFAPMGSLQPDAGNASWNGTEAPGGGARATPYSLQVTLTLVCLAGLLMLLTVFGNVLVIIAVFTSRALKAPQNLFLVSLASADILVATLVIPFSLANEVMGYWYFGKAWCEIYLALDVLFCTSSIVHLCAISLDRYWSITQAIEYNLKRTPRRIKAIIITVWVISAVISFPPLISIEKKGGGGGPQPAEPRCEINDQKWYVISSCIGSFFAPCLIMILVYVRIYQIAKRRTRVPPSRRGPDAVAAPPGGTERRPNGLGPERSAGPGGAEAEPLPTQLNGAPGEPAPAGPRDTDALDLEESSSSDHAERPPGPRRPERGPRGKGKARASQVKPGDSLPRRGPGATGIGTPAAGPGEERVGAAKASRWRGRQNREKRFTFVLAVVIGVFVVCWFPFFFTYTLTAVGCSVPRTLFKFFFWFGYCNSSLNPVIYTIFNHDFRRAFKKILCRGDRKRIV
Source text: as §1
(§5) α2 Human Adrenergic Receptors:
(§6) To determine the potency of […], antagonists at the α2 receptors, LM(tk−) cell lines stably transfected with the genes encoding the α2A, α2B, and α2C receptors were used. The cell line expressing the α2A receptor is designated L-α2A, and was deposited on Nov. […] The cell line expressing the α2B receptor is designated L-NGC-α2B, and was deposited on Oct. […] The cell line expressing the α2C receptor is designated L-α2C, and was deposited on Nov. […] Cell lysates were prepared as described above (see Radioligand Binding Assays), and suspended in 25 mM glycylglycine buffer (pH 7.6 at room temperature). Equilibrium competition binding assay were performed using [3H]rauwolscine (0.5 nM), and nonspecific binding was determined by incubation with 10 μM phentolamine. The bound radioligand was separated by filtration through GF/B filters using a cell harvester.

[5] = target: T5, α2C receptor (Homo sapiens, UniProt P18825); assay: Competition binding, [3H]rauwolscine, human α2C receptor; conditions: [3H]rauwolscine, human receptor, LM(tk-) cell lysates; mean; read-out: PKi alpha-2 2c (converted)
T5 construct: host or cells: LM(tk-) cells, line L-α2C
T5 sequence (P18825 1-462): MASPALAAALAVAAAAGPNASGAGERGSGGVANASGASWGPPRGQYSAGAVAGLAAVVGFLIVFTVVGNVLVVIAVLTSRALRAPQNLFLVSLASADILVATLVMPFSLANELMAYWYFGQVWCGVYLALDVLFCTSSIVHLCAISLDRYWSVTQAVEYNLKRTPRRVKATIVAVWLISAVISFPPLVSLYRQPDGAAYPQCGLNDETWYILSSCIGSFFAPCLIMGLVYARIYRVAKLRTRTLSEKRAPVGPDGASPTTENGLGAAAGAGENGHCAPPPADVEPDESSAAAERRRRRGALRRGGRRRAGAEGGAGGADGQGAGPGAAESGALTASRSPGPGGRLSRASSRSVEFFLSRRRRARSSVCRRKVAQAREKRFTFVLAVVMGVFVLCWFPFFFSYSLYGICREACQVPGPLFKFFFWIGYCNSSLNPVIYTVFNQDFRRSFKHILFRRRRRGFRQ
Source text: as §1, §5, §6

[6] = target: T6, α2B receptor (Homo sapiens, UniProt P18089); assay: Competition binding, [3H]rauwolscine, human α2B receptor; conditions: [3H]rauwolscine, human receptor, LM(tk-) cell lysates; mean; read-out: PKi alpha-2 2b (converted)
T6 construct: host or cells: LM(tk-) cells, line L-NGC-α2B
T6 sequence (P18089 1-450): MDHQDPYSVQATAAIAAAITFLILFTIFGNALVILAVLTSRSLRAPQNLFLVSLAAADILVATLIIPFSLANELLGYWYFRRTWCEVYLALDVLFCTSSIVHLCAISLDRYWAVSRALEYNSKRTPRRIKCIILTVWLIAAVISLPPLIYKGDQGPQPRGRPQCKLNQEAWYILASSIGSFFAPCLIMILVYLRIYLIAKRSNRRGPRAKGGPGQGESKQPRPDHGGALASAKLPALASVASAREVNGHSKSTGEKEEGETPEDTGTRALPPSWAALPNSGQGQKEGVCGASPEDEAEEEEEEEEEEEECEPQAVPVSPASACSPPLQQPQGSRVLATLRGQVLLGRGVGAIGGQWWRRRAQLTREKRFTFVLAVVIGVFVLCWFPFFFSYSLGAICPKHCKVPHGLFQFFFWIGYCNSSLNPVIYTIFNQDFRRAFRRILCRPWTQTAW
Source text: as §1, §5, §6

Row | SMILES | Ki [1] | Ki [2] | Ki [3] | melting point | Ki [4] | Ki [5] | Ki [6]
1 | CCOC(=O)C1(c2ccccc2)CCN(CCCNC(=O)C2=C(COCCN=[N+]=[N-])NC(CC)=C(C(N)=O)C2c2ccc([N+](=O)[O-])cc2)CC1 (centres unmarked) [Example 190, 2-[(2-Azidoethoxy)methyl]-5-carboxamido-3-{N-[3-(4-ethoxycarbonyl-4-phenylpiperidin-1-yl)propyl]}carboxamido-1,4-dihydro-6-ethyl-4-(4-nitrophenyl)pyridine] | 708 nM | 1350 nM | 5.37 nM | 63 to 64 °C | – | – | –
2 | CCOC(=O)C1(c2ccccc2)CCN(CCCNC(=O)C2=C(COCCN=[N+]=[N-])NC(CC)=C(C(=O)NC)C2c2ccc([N+](=O)[O-])cc2)CC1 (centres unmarked) [Example 191, 2-[(2-Azidoethoxy)methyl]-3-{N-[3-(4-ethoxycarbonyl-4-phenyl-piperidin-1-yl)propyl]}carboxamido-1,4-dihydro-6-ethyl-5-(N-methyl)carboxamido-4-(4-nitrophenyl)pyridine] | 1350 nM | 1950 nM | 8.13 nM | 67 to 68 °C | – | – | –
3 | CCOC(=O)C1(c2ccccc2)CCN(CCCNC(=O)C2=C(COCCN=[N+]=[N-])NC(CC)=C(C(=O)OC)C2c2ccc([N+](=O)[O-])cc2)CC1 (centres unmarked) [Example 195, 2-[(2-Azidoethoxy)methyl]-3-{N-[3-(4-ethoxycarbonyl-4-phenylpiperidin-1-yl)propyl]}carboxamido-1,4-dihydro-6-ethyl-5-methoxycarbonyl-4-(4-nitrophenyl)pyridine] | 129 nM | 288 nM | 7.08 nM | 56 to 57 °C | – | – | –
4 | COC(=O)C1(c2ccccc2)CCN(CCCNC(=O)C2=C(C)NC(C)=C(C(=O)O)C2c2ccc([N+](=O)[O-])cc2)CC1 (centres unmarked) [Example 204, 1,4-Dihydro-2,6-dimethyl-3-{N-[3-(4-methoxycarbonyl-4-phenylpiperidin-1-yl)propyl]}carboxamido-4-(4-nitrophenyl)pyridine-5-carboxylic acid] | – | – | – | 139 to 141 °C | 1170 nM | 1230 nM | 1700 nM
5 | CC1=C(C(N)=O)C(c2ccc([N+](=O)[O-])cc2)C(C(=O)NCCCN2CCC(C#N)(c3ccccc3)CC2)=C(COCCN=[N+]=[N-])N1 (centres unmarked) [Example 214, 2-((2-Azidoethyl)oxy)methyl-5-carboxamido-3-(N-(3-(4-cyano-4-phenylpiperidin-1-yl)propyl)) carboxamido-1,4-dihydro-6-methyl-4-(4-nitro)phenylpyridine] | 776 nM | 2570 nM | 6.17 nM | 81 °C (dec.) | – | – | –
